Results taken from PubChem BioAssay (NCI).
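How tested: cells in 96-well plates exposed to compound for 48 hours at five concentrations. The concentration for full growth arrest is given as TGI.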

Columns and labels:
Assay in all cases: NCI tumour cell line growth inhibition, 48 h
[1] = test system: UACC-257 melanoma
[2] = test system: OVCAR-5 ovarian
[3] = test system: HOP-92 NSCLC
[4] = test system: HL-60(TB) leukemia
[5] = test system: ACHN renal
[6] = test system: U251 CNS
[7] = test system: SK-MEL-28 melanoma
[8] = test system: M19-MEL melanoma
[9] = test system: MOLT-4 leukemia
[10] = test system: SR leukemia
[11] = test system: SF-295 CNS
[12] = test system: SNB-78 CNS
[13] = test system: KM12 colon
[14] = test system: A549 NSCLC
[15] = test system: OVCAR-8 ovarian
[16] = test system: EKVX NSCLC
[17] = test system: NCI-H23 lung
[18] = test system: M14 melanoma
[19] = test system: HCT-116 colon
[20] = test system: NCI-H460 lung
[21] = test system: RXF-631 renal
[22] = test system: CCRF-CEM leukemia
[23] = test system: SNB-19 CNS
[24] = test system: RXF 393 renal
[25] = test system: UO-31 renal
[26] = test system: NCI-H522 lung
[27] = test system: IGROV1 ovarian
[28] = test system: A498 renal
[29] = test system: DMS 273 small cell lung
[30] = test system: HOP-62 NSCLC
[31] = test system: TK-10 renal
[32] = test system: HT29 colon
[33] = test system: SK-OV-3 ovarian
[34] = test system: NCI-H226 lung

CCCC(=O)OCC1OC2OC(C)(C)OC2C2OC(C)(C)OC12 (centres undefined)
TGI [1]: > 100 µM | TGI [2]: > 100 µM | TGI [3]: > 100 µM | TGI [4]: > 100 µM | TGI [5]: > 100 µM | TGI [6]: > 100 µM | TGI [7]: > 100 µM | TGI [8]: > 100 µM | TGI [9]: > 100 µM | TGI [10]: > 100 µM | TGI [11]: > 100 µM | TGI [12]: > 100 µM | TGI [13]: > 100 µM | TGI [14]: > 100 µM | TGI [15]: > 100 µM | TGI [16]: > 100 µM | TGI [17]: > 100 µM | TGI [18]: > 100 µM | TGI [19]: > 100 µM | TGI [20]: > 100 µM | TGI [21]: > 100 µM | TGI [22]: > 100 µM | TGI [23]: > 100 µM | TGI [24]: > 100 µM | TGI [25]: > 100 µM | TGI [26]: > 100 µM | TGI [27]: > 100 µM | TGI [28]: > 100 µM | TGI [29]: > 100 µM | TGI [30]: > 100 µM | TGI [31]: 61.1 µM | TGI [32]: > 100 µM | TGI [33]: > 100 µM | TGI [34]: > 100 µM
